{
  "source": "paper PMC11655065",
  "about": "“Antimicrobial activity of iron-depriving pyoverdines against human opportunistic pathogens” (eLife, 2024)",
  "key": {"[1]": {"conditions": "cited from earlier work; for iron association constant: ref Bohac et al., 2019, Shapiro and Wencewicz, 2016, Sheldon and Skaar, 2020"}, "[2]": {"system": "K. pneumoniae", "experiment": "Dose–response growth inhibition in CAA medium", "type": "cell-based, Klebsiella pneumoniae", "procedure": "(§1) Pathogen overnight cultures were grown in either 8 mL tryptic soy broth (TSB; for the two S. aureus strains) or 8 mL lysogeny broth (LB; all other pathogens) in 50 mL tubes at 37°C and 220 rpm agitation. Following two washing steps with 0.8% NaCl, we adjusted the overnight cultures to an optical density at 600 nm (OD600) of 1. For overnights of environmental isolates, we followed the same procedure when working with low sample sizes, with the only difference being that culturing occurred at 28°C. For the large-scale screening experiments, we grew environmental isolates in 200 µL LB in 96-well plates shaken at 170 rpm. Cultures from plates were then directly used for experiments. For all main experiments (screen for bioactive pyoverdines and dose–response curves), we used CAA medium (1% casamino acids, 5 mM K2HPO4 * 3H2O,1 mM MgSO4*7 H2O, 25 mM HEPES buffer). This medium contains low levels of iron, triggering pyoverdine production ([Cunrath et al., 2016]).\n(§2) To determine the inhibition potential of crude- and HPLC-purified pyoverdines, as well as ferribactin, we subjected A. baumannii. K. pneumoniae, P. aeruginosa, and S. aureus to serially diluted extracts. For this, the extracts were dissolved in CAA medium, filter sterilized, and diluted in the same medium. Bacterial overnight cultures were grown and prepared as described above and added to a total of 200 µL medium on a 96-well plate with four replicates per extract dilution. […] We incubated the plates at 37°C statically in the plate reader and measured the OD600 every 15 min for 24 hr. Before each measurement, plates were shaken for 15 s. We repeated the experiment up to five times with different initial extract starting concentrations. This was done to ensure that the full dose response to pyoverdine was captured. Thus, sample size per individual extract concentration varied between 4 and 20 replicates. We subtracted the blank values and the background values caused by the treatment of the respective extract concentration from the measured growth data and calculated the integral (area under the growth curve) using the R package Growthcurver ([Sprouffske and Wagner, 2016]). We then expressed growth relative to the control medium, where bacteria grew in CAA without extract or antibiotic addition. Finally, we plotted extract/antibiotic concentration vs. relative growth and fitted dose–response curves (see below)."}, "[3]": {"system": "S. aureus JE2", "experiment": "Dose–response growth inhibition in CAA medium", "type": "cell-based, Staphylococcus aureus", "procedure": "as §1, with “This medium contains low levels of iron, triggering pyoverdine production ([Cunrath et al., 2016]).” left out\n(§3) To determine the inhibition potential of crude- and HPLC-purified pyoverdines, as well as ferribactin, we subjected A. baumannii. […] We incubated the plates at 37°C statically in the plate reader and measured the OD600 every 15 min for 24 hr. […] We subtracted the blank values and the background values caused by the treatment of the respective extract concentration from the measured growth data and calculated the integral (area under the growth curve) using the R package Growthcurver ([Sprouffske and Wagner, 2016]). […]"}, "[4]": {"system": "A. baumannii", "experiment": "Dose–response growth inhibition in CAA medium", "type": "cell-based, Acinetobacter baumannii", "conditions": "for inhibition of A. baumannii with iron supplementation: crude pyoverdine", "procedure": "as §1, §2"}, "[5]": {"experiment": "in vitro", "type": "cell-based", "conditions": "sheep", "procedure": "To determine the hemolytic activity of pyoverdines, we quantified sheep erythrocyte hemolysis at different pyoverdine concentrations. We first centrifuged 25 mL of fresh sheep blood (Chemie Brunschwig AG, Switzerland) in a 50 mL tube at 1500 × g for 5 min at 4°C. Plasma was then gently aspirated, replaced by PBS, and tubes were gently inverted to mix. This washing procedure was repeated three times. Pyoverdines were diluted in PBS to final relative concentrations of 1, 0.5, 0.25, 0.2, 0.02, and 0.002. PBS and 0.1% Triton X-100 (Sigma-Aldrich) served as negative and positive control, respectively. 100 µL erythrocyte solution was mixed with either 100 µL pyoverdine solution or the controls in a 96-well plate in triplicates. Following an incubation at 37°C and 120 rpm for 1 hr, the plate was centrifuged at 1036 × g for 5 min at 4°C. Subsequently, 100 µL of the supernatant were transferred to a new 96-well plate. Hemoglobin release was measured at 570 nm in the plate reader and the percent hemolysis was calculated relative to the positive control [% hemolysis = (OD570 of sample – negative control)/(positive control – negative control)]."}, "[6]": {"system": "A. baumannii", "experiment": "Infection model: treatment of infected larvae", "type": "in vivo, Galleria mellonella", "conditions": "injected 4 hr post infection", "procedure": "(§4) We tested the efficacy of pyoverdine to treat infections in larvae of the host model G. mellonella. All larvae were ordered from a local vendor (Bait Express GmbH, Basel, Switzerland) and stored without food at 16°C in the dark for up to 3 days. In a first step, we determined the mean weight of 336 final instar G. mellonella larvae (mean = 435 mg). For all subsequent experiments, we weighed the larvae and only used individuals with a mean weight ±20% (range: 340–530 mg). Larvae were immobilized on ice for 15 min, surface-sterilized with 70% ethanol, and randomly distributed to individual wells on 24-well plates. Ten larvae were used per infection–treatment combination. To inject bacteria and administer treatments, we used sterile needles (Sterican 26G, 0.45 × 12 mm [Braun]) and syringes (1 mL injekt-F [Braun]) attached to a syringe pump (New Era Pump Systems Inc, model NE-300) set to a flow rate of 5 mL/hr. For both infection and treatment delivery, a volume of 10 µL per larvae was injected between the posterior larval prolegs.\n(§5) On the pathogen side, we determined the LD50 (lethal dose, killing 50% of the larvae) for A. baumannii (1.8 * 10^5 CFU/larvae) and K. pneumoniae (8.9 * 10^5 CFU/larvae) (Figure 5—figure supplement 1). For P. aeruginosa, we use 56 CFU/larvae because all doses tested killed 100% of the larvae (Figure 5—figure supplement 1). As negative control, we administered 10 µL/larvae of sterile PBS. Following infections, larvae were individually placed in wells of 24-well plates and incubated at 37°C in the dark for 4 hr.\n(§6) On the treatment side, we used pyoverdines 3A06, 3G07, and s3b09 at three concentrations that were non-toxic for the NSC-34 cells. For this, we prepared stocks of 60 mg/mL, 30 mg/mL, and 6 mg/mL of crude pyoverdines. Since the injected treatment volume was 10 µL per larvae, the final pyoverdine concentrations were 0.6 mg, 0.3 mg, and 0.06 mg per larvae, respectively. When scaling theses concentrations to the doses used for the […] dose–response curves (Figure 4), the relative pyoverdine concentrations were 0.1, 0.05, and 0.01. Pyoverdine treatments were administered 4 hr after the infection through injections. Prior to treatment, larvae were immobilized on ice for 15 min. We also applied treatments to larvae infected with sterile PBS to quantify potential negative effects of the treatment in the absence of an infection. Following treatment, larvae were put back to their allocated well of the 24-well plate and kept at 37°C in the dark.\n(§7) From the 12th hour post infection (hpi) onward, we regularly checked the survival of all larvae for a total of 48 hpi. Specifically, larvae were poked with a pipette tip and individuals not responding to the physical stimulation were considered dead. […]"}, "[7]": {"system": "K. pneumoniae", "experiment": "Infection model: treatment of infected larvae", "type": "in vivo, Galleria mellonella", "procedure": "as §4, §5, §6, §7"}, "[8]": {"system": "P. aeruginosa PAO1", "experiment": "Dose–response growth inhibition in CAA medium", "type": "cell-based, Pseudomonas aeruginosa", "conditions": "HPLC-purified ferribactin, concentration gradient", "procedure": "as §1, with “This medium contains low levels of iron, triggering pyoverdine production ([Cunrath et al., 2016]).” left out\nas §3"}, "[9]": {"system": "P. aeruginosa", "conditions": "2012, 2013, cited from earlier work"}, "[10]": {"system": "A. baumannii", "design": "method as in Visca et al., 2013; de Léséleuc et al., 2012", "conditions": "ref Visca et al., 2013; de Léséleuc et al., 2012; cited from earlier work"}, "[11]": {"conditions": "HPLC-purified ferribactin, concentration gradient"}},
  "note": "Like-named read-outs stand apart in the source and are kept apart here. Square brackets hold non-standard residues; d marks the D form. Side chains are listed from the residue outwards. Peptide text beside a SMILES is read from it. * marks the point of attachment. ξ: configuration not given here. X1 = O=C(O)CCC(=O)NC1=Cc2cc(O)c(O)cc2N2C1=NCCC2C(=O)*; NH(1-OH-2-oxopiperidin-3-yl) = O=C1C(N*)CCCN1O; ξAsp(3ξ-OH) = NC(C(=O)O)C(O)C(=O)O",
  "data": [
    {"compound": "fimsbactin", "values": [
      {"measurement": "iron association constant", "setting": "[1]", "result": "10^27 M^–1"}
    ]},
    {"compound": "pyoverdine", "values": [
      {"measurement": "iron affinity (Ka, association constant)", "setting": "[1]; ref Meyer and Abdallah, 1978", "result": "10^32 M^–1"}
    ]},
    {"compound": "CC(=O)N(O)CCCCCNC(=O)CCC(=O)N(O)CCCCCNC(=O)CCC(=O)N(O)CCCCCN", "note": "[desferoxamine]", "values": [
      {"measurement": "iron affinity", "setting": "[1]; ref Elalfy et al., 2023", "result": "10^27 M^–1"}
    ]},
    {"compound": "CC(NC(=O)C(NC(=O)C(CO)NC(=O)C(NC(=O)C(N)CCCCNC(=O)C(CC(=O)O)NC(=O)C1CCN=C2C(NC(=O)CCC(=O)O)=Cc3cc(O)c(O)cc3N21)C(O)C(=O)O)C(C)O)C(=O)NC(C(=O)NC(CCCCN)C(=O)NC1CCCN(O)C1=O)C(C)O", "note": "(stereo not shown) [pyoverdine s3b09] (H-K([Asp-X1])[ξAsp(3ξ-OH)]STATK-{NH(1-OH-2-oxopiperidin-3-yl)}; configuration not given here)", "values": [
      {"measurement": "growth reduction (model fit)", "setting": "[2]; HPLC-purified pyoverdine", "result": "9–12%"},
      {"measurement": "growth reduction (model fit)", "setting": "[2]; crude-purified pyoverdine", "result": "9–12%"},
      {"measurement": "IC50", "setting": "[3]; Staphylococcus aureus, JE2, HPLC-purified pyoverdine, growth relative to untreated control", "result": 12.2, "unit": "µg/mL"},
      {"measurement": "IC50", "setting": "[4]; Acinetobacter baumannii, HPLC-purified pyoverdine, CAA medium, growth relative to untreated control", "result": 5.04, "unit": "µg/mL"},
      {"measurement": "inhibition of A. baumannii with iron supplementation", "setting": "[4]; CAA medium + 40 µM FeCl3", "result": "greatly reduced"},
      {"measurement": "inhibition of A. baumannii with iron supplementation", "setting": "[4]; CAA medium + 200 µM FeCl3", "result": "completely stalled"},
      {"measurement": "hemolysis at 1 h, 1 relative concentration", "setting": "[5]", "result": 5.92, "unit": "%"},
      {"measurement": "reduction of the risk of death, significance", "setting": "[6]; same tendency observed, z = –1.496, p=0.135", "result": "not significant"},
      {"measurement": "relationship between pyoverdine concentration and time-to-death", "setting": "[7]; relative concentrations 0-0.1, quadratic term significant", "result": "hump-shaped"}
    ]},
    {"compound": "O=C(N[C@H]1COC(=O)[C@@H](NC(=O)c2cccc(O)c2O)COC(=O)[C@@H](NC(=O)c2cccc(O)c2O)COC1=O)c1cccc(O)c1O", "note": "[enterobactin]", "values": [
      {"measurement": "iron affinity", "setting": "[1]; ref Harris et al., 1979", "result": "10^52 M^–1"}
    ]},
    {"compound": "acinetobactin", "values": [
      {"measurement": "iron association constant", "setting": "[1]", "result": "10^26 M^–1"}
    ]},
    {"compound": "ferribactin [reference compound]", "values": [
      {"measurement": "growth inhibition", "setting": "[2]; [11]", "result": "no growth inhibition"},
      {"measurement": "growth inhibition", "setting": "[3]; [11]", "result": "no growth inhibition"},
      {"measurement": "growth inhibition", "setting": "[4]; HPLC-purified ferribactin, concentration gradient, CAA medium", "result": "no growth inhibition"},
      {"measurement": "growth inhibition", "setting": "[8]", "result": "no growth inhibition"}
    ]},
    {"compound": "Cc1c(O)c(=O)ccn1C", "note": "[deferiprone]", "values": [
      {"measurement": "minimum inhibitory concentration (MIC) relative to plasma levels in human therapy", "setting": "[9]; ref Thompson et al., Visca et al.", "result": "up to 36.7 times"},
      {"measurement": "growth suppression at sub-MIC levels", "setting": "[9]; ref Visca et al., de Léséleuc et al.", "result": "only partially suppressed the growth"},
      {"measurement": "growth suppression at sub-MIC levels", "setting": "[10]", "result": "only partially suppressed the growth"}
    ]},
    {"compound": "CC(O)C(NC(=O)C(CO)NC(=O)C(NC(=O)C(N)CCCCNC(=O)C(CC(=O)O)NC(=O)C1CCN=C2C(NC(=O)CCC(=O)O)=Cc3cc(O)c(O)cc3N21)C(O)C(=O)O)C(=O)NC(CO)C(=O)NC(CCCCN)C(=O)NC1CCCN(O)C1=O", "note": "(stereo not shown) [pyoverdine 3A06] (H-K([Asp-X1])[ξAsp(3ξ-OH)]STSK-{NH(1-OH-2-oxopiperidin-3-yl)}; configuration not given here)", "values": [
      {"measurement": "growth reduction (model fit)", "setting": "[2]; crude-purified pyoverdine", "result": "9–12%"},
      {"measurement": "hemolysis at 1 h, 1 relative concentration", "setting": "[5]", "result": 2.01, "unit": "%"},
      {"measurement": "reduction of the risk of death (hazard) vs untreated infection", "setting": "[6]; relative concentration 0.05, 48 hr, Cox regression", "result": 57.9, "unit": "%"},
      {"measurement": "reduction of the risk of death (hazard) vs untreated infection", "setting": "[7]; relative concentration 0.01, injected 4 hr post infection, 48 hr, Cox regression", "result": 51.5, "unit": "%"}
    ]}
  ]
}
